Results published in US4973675A, “Hybrid nitrosoureidoanthracyclines having antitumor activity” (University of Tennessee Research Center, priority 1989, dated 1990).
Read-outs that look alike come from different tables or passages of the source.

System: human CEM leukemic lymphocytes
Assay: Growth inhibition of human CEM leukemic lymphocyte suspension cultures, 48 h continuous drug exposure (ID50)
Type: cell-based
Conditions: Homo sapiens, Lymphocyte
Procedure: Culture and bioassay conditions were as described in Cancer Chemotherapy Pharmacology 20:277 (1987) "Comparative Effects of Adriamycin and DNA-nonbinding Analogues on DNA, RNA, and Protein Synthesis in Vitro", Israel et al., except that cell counts were determined by hemocytometer rather than by automated cell counting.

[1] = CEM, 48 hr continuous drug exposure (Table 2), read-out: ID50 (the source's name)

| SMILES | IC50 [1] | IC50 (48 h, read-out: ID50) |
| --- | --- | --- |
| CCCNC(=O)N[C@H]1C[C@H](O[C@H]2C[C@](O)(C(=O)CO)Cc3c(O)c4c(c(O)c32)C(=O)c2c(OC)cccc2C4=O)O[C@@H](C)[C@H]1O [AD 348] | 770 nM |  |
| COc1cccc2c1C(=O)c1c(O)c3c(c(O)c1C2=O)C[C@@](O)(C(=O)CO)C[C@@H]3O[C@H]1C[C@H](NC(=O)NC(C)C)[C@H](O)[C@H](C)O1 [AD 350] | 720 nM |  |
| COc1cccc2c1C(=O)c1c(O)c3c(c(O)c1C2=O)C[C@@](O)(C(=O)CO)C[C@@H]3O[C@H]1C[C@H](NC(=O)Nc2ccccc2)[C@H](O)[C@H](C)O1 [AD 352] | 400 nM |  |
| COc1cccc2c1C(=O)c1c(O)c3c(c(O)c1C2=O)C[C@@](O)(C(C)=O)C[C@@H]3O[C@H]1C[C@H](NC(=O)N(C)N=O)[C@H](O)[C@H](C)O1 [AD 310] | 1400 nM |  |
| CCOC(=O)NC(=S)N[C@H]1C[C@H](O[C@H]2C[C@](O)(C(C)=O)Cc3c(O)c4c(c(O)c32)C(=O)c2c(OC)cccc2C4=O)O[C@@H](C)[C@H]1O [AD 336] | 600 nM |  |
| CCNC(=O)N[C@H]1C[C@H](O[C@H]2C[C@](O)(C(C)=O)Cc3c(O)c4c(c(O)c32)C(=O)c2c(OC)cccc2C4=O)O[C@@H](C)[C@H]1O [AD 306] | > 1000 nM |  |
| CCCN(N=O)C(=O)N[C@H]1C[C@H](O[C@H]2C[C@](O)(C(=O)CO)Cc3c(O)c4c(c(O)c32)C(=O)c2c(OC)cccc2C4=O)O[C@@H](C)[C@H]1O [AD 349] | 430 nM |  |
| CCCN(N=O)C(=O)N[C@H]1C[C@H](O[C@H]2C[C@](O)(C(C)=O)Cc3c(O)c4c(c(O)c32)C(=O)c2c(OC)cccc2C4=O)O[C@@H](C)[C@H]1O [AD 313] | > 1000 nM |  |
| COc1cccc2c1C(=O)c1c(O)c3c(c(O)c1C2=O)C[C@@](O)(C(C)=O)C[C@@H]3O[C@H]1C[C@H](NC(=O)NC(C)C)[C@H](O)[C@H](C)O1 [AD 328] | > 1000 nM |  |
| CCN(N=O)C(=O)N[C@H]1C[C@H](O[C@H]2C[C@](O)(C(=O)CO)Cc3c(O)c4c(c(O)c32)C(=O)c2c(OC)cccc2C4=O)O[C@@H](C)[C@H]1O [AD 345] |  | 610 nM |
| CCCNC(=O)N[C@H]1C[C@H](O[C@H]2C[C@](O)(C(C)=O)Cc3c(O)c4c(c(O)c32)C(=O)c2c(OC)cccc2C4=O)O[C@@H](C)[C@H]1O [AD 308] | > 5000 nM |  |
| COc1cccc2c1C(=O)c1c(O)c3c(c(O)c1C2=O)C[C@@](O)(C(=O)CO)C[C@@H]3O[C@H]1C[C@@H]2NC(=O)O[C@@H]2[C@H](C)O1 [AD 363] | 710 nM |  |
| CNC(=O)N[C@H]1C[C@H](O[C@H]2C[C@](O)(C(C)=O)Cc3c(O)c4c(c(O)c32)C(=O)c2c(OC)cccc2C4=O)O[C@@H](C)[C@H]1O [AD 305] | 2300 nM |  |
| CNC(=O)N[C@H]1C[C@H](O[C@H]2C[C@](O)(C(=O)CO)Cc3c(O)c4c(c(O)c32)C(=O)c2c(OC)cccc2C4=O)O[C@@H](C)[C@H]1O [AD 342] | 2000 nM |  |
| COc1ccc(NC(=O)N[C@H]2C[C@H](O[C@H]3C[C@](O)(C(C)=O)Cc4c(O)c5c(c(O)c43)C(=O)c3c(OC)cccc3C5=O)O[C@@H](C)[C@H]2O)cc1 [AD 330] | > 1000 nM |  |
| CCN(N=O)C(=O)N[C@H]1C[C@H](O[C@H]2C[C@](O)(C(C)=O)Cc3c(O)c4c(c(O)c32)C(=O)c2c(OC)cccc2C4=O)O[C@@H](C)[C@H]1O [AD 311] |  | 1500 nM |
| COc1cccc2c1C(=O)c1c(O)c3c(c(O)c1C2=O)C[C@@](O)(C(C)=O)C[C@@H]3O[C@H]1C[C@H](NC(=O)Nc2ccc(F)cc2)[C@H](O)[C@H](C)O1 [AD 332] |  | > 1000 nM |
| COc1cccc2c1C(=O)c1c(O)c3c(c(O)c1C2=O)C[C@@](O)(C(=O)CO)C[C@@H]3O[C@H]1C[C@H](NC(=O)N(C)N=O)[C@H](O)[C@H](C)O1 [AD 343] |  | 480 nM |
| COc1cccc2c1C(=O)c1c(O)c3c(c(O)c1C2=O)C[C@@](O)(C(C)=O)C[C@@H]3O[C@H]1C[C@H](NC(=O)Nc2cccc(C(F)(F)F)c2)[C@H](O)[C@H](C)O1 [AD 334] | 830 nM |  |
| COc1ccc(NC(=O)N[C@H]2C[C@H](O[C@H]3C[C@](O)(C(=O)CO)Cc4c(O)c5c(c(O)c43)C(=O)c3c(OC)cccc3C5=O)O[C@@H](C)[C@H]2O)cc1 [AD 354] | 710 nM |  |
